ChEMBL document CHEMBL6092178, “Discovery of a novel KV7.2/7.3 channels agonist for the treatment of neuropathic pain” (Eur J Med Chem, 2024)
Activity calls are given as the source filed them.

Experiments:
Rattus norvegicus [1] = assay: Antiallodynic activity in CCI-induced neuropathic pain Sprague-Dawley rat model assessed as attenuation of mechanical allodynia at IG administration pretreated with compound for 1 hrs and measured on day 15 after surgery; assay type: functional; settings: dose 10-40 mg/kg
[2] = target: Voltage-gated potassium channel, KQT; KCNQ2(Kv7.2)/KCNQ3(Kv7.3) (Homo sapiens, UniProt O43525+O43526); assay: Agonist activity at human KCNQ2/3 transfected in human HEK293 cells incubated for 30 mins by fluorimetric assay; assay type: cell-based
[3] = target: GABA-A receptor; anion channel (Homo sapiens) (UniProt P14867+P47870+P18507+P28472+P48169+Q99928+Q9UN88+P34903+O00591+O14764+Q8N1C3+P18505+P78334+P47869+P31644+Q16445); assay: Inhibition of GABAA receptor (unknown origin) relative to control; assay type: protein-complex assay; settings: concentration not given here
[4] = AUC (0 to t) in male Sprague-Dawley rat at 30 mg/kg, IG measured upto 24 hrs by LC-MS/MS analysis; assay type: ADME, organism-based; settings: in vivo, po
Rattus norvegicus [5] = assay: Antiallodynic activity against oxaliplatin-induced neuropathic pain Sprague-Dawley rat model assessed as increased mechanical withdrawal threshold at 10 to 40 mg/kg, IG measured for 48 hrs; assay type: functional, organism-based; settings: dose 10-40 mg/kg
[6] = AUC (0 to infinity) in male Sprague-Dawley rat at 5 mg/kg, iv measured upto 24 hrs by LC-MS/MS analysis; assay type: ADME, organism-based; settings: in vivo
[7] = target: Glutamate [NMDA] receptor (Homo sapiens) (UniProt Q05586+Q12879+Q13224+O15399+O60391+Q14957+Q8TCU5); assay: Inhibition of NMDA receptor (unknown origin) relative to control; assay type: protein-complex assay; settings: concentration not given here
[8] = Acute toxicity in mouse assessed as lethal dose at ip administration measured after 7 days; assay type: organism-based; settings: in vivo, time 7 day
Rattus norvegicus [9] = organism: Rattus norvegicus; assay: Analgesic activity in streptozotocin-induced diabetic peripheral neuropathic pain male Sprague-Dawley rat model pretreated with compound for 1 hrs and measured on day 15 after surgery; assay type: functional; settings: dose 10-40 mg/kg
[10] = Hepatotoxicity in rat assessed as increase in serum ALT level at 20 to 40 mg/kg, IG administered for 28 days and measured after 14 days relative to control; assay type: toxicity, organism-based; settings: in vivo, po, 672 h, dose 20-40 mg/kg, time 28 day
[11] = Half life in male Sprague-Dawley rat at 30 mg/kg, IG measured upto 24 hrs by LC-MS/MS analysis; assay type: ADME, organism-based; settings: in vivo, po
[12] = Hepatotoxicity in rat assessed as change in serum total bilirubin (TBIL) level at 10 to 40 mg/kg, IG administered for 28 days and measured after 14 days; assay type: toxicity, organism-based; settings: in vivo, po, 672 h, dose 10-40 mg/kg, time 28 day
Rattus norvegicus [13] = assay: Antiallodynic activity in CCI-induced neuropathic pain Sprague-Dawley rat model assessed as attenuation of mechanical allodynia at 10 to 40 mg/kg, IG pretreated with compound for 1 hrs and measured on day 15 after surgery; assay type: functional, organism-based; settings: dose 10-40 mg/kg, time 15.0 day
[14] = target: Voltage-gated potassium channel, KQT; KCNQ2(Kv7.2)/KCNQ3(Kv7.3) (Homo sapiens) (UniProt O43526+O43525); assay: Agonist activity at human KCNQ2/3 transfected in human HEK293 cells incubated for 30 mins by fluorimetric assay relative to flupirtine; assay type: cell-based; settings: filed as agonist
[15] = AUC (0 to t) in male Sprague-Dawley rat at 5 mg/kg, iv measured upto 24 hrs by LC-MS/MS analysis; assay type: ADME, organism-based; settings: in vivo
Rattus norvegicus [16] = assay: Antiallodynic activity against oxaliplatin-induced neuropathic pain Sprague-Dawley rat model assessed as increased mechanical withdrawal threshold at IG administration and measured after 48 hrs; assay type: functional; settings: po
Rattus norvegicus [17] = assay: Antiallodynic activity in CCI-induced neuropathic pain Sprague-Dawley rat model assessed as attenuation of mechanical allodynia at 20 mg/kg, IG administration pretreated with compound for 1 hrs and measured on day 15 after surgery; assay type: functional, organism-based; settings: time 15.0 day
[18] = Hepatotoxicity in rat assessed as change in serum AST level at 10 to 40 mg/kg, IG administered for 28 days and measured after 14 days; assay type: toxicity, organism-based; settings: in vivo, po, 672 h, dose 10-40 mg/kg, time 28 day
Homo sapiens [19] = organism: Homo sapiens; assay: Inhibition of voltage-gated sodium channel Nav 1.7 (unknown origin) relative to control; settings: concentration not given here
[20] = Cmax in male Sprague-Dawley rat at 5 mg/kg, iv measured upto 24 hrs by LC-MS/MS analysis; assay type: ADME, organism-based; settings: in vivo
[21] = target: Transient receptor potential cation channel subfamily V member 1 (Homo sapiens) (UniProt Q8NER1); assay: Inhibition of TRPV-1 (unknown origin) relative to control; settings: concentration not given here
[22] = Hepatotoxicity in rat assessed as change in serum ALP level at 10 to 40 mg/kg, IG administered for 28 days and measured after 14 days; assay type: toxicity, organism-based; settings: in vivo, po, 672 h, dose 10-40 mg/kg, time 28 day
Rattus norvegicus [23] = assay: Antiallodynic activity in IG dosed spinal nerve ligation-induced neuropathic pain male Sprague-Dawley rat model assessed as mechanical withdrawal threshold pretreated with compound for 1 hr and measured on day 15 after surgery; assay type: functional
[24] = Oral bioavailability in male Sprague-Dawley rat at 30 mg/kg measured upto 24 hrs by LC-MS/MS analysis; assay type: ADME, organism-based; settings: in vivo
Rattus norvegicus [25] = assay: Analgesic activity in streptozotocin-induced diabetic peripheral neuropathic pain male Sprague-Dawley rat model at 10 to 40 mg/kg pretreated with compound for 1 hrs and measured on day 15 after surgery; assay type: functional, organism-based; settings: dose 10-40 mg/kg
[26] = Tmax in male Sprague-Dawley rat at 30 mg/kg, IG measured upto 24 hrs by LC-MS/MS analysis; assay type: ADME, organism-based; settings: in vivo, po
[27] = target: Histamine H3 receptor (Homo sapiens) (UniProt Q9Y5N1); assay: Inhibition of H3 receptor (unknown origin) relative to control; settings: concentration not given here
[28] = Acute toxicity in mouse assessed as lethal dose at IG administration measured after 7 days; settings: in vivo, po, time 7 day
Rattus norvegicus [29] = assay: Antiallodynic activity in spinal nerve ligation-induced neuropathic pain male Sprague-Dawley rat model assessed as mechanical withdrawal threshold at 40 mg/kg, IG pretreated with compound for 1 hr and measured on day 15 after surgery; assay type: functional, organism-based; settings: time 15.0 day
[30] = Half life in male Sprague-Dawley rat at 5 mg/kg, iv measured upto 24 hrs by LC-MS/MS analysis; assay type: ADME, organism-based; settings: in vivo
[31] = target: Mu-type opioid receptor (Homo sapiens) (UniProt P35372); assay: Inhibition of mu-opioid receptor (unknown origin) relative to control; settings: concentration not given here
Rattus norvegicus [32] = assay: Antinociceptive activity against formalin-induced pain in male Sprague-Dawley rat assessed as reduction in nociceptive response at 20 mg/kg, IG pretreated for 5 mins followed by formalin challenge and measured for 10 to 60 mins (phase II); assay type: functional, organism-based
[33] = Clearance in male Sprague-Dawley rat at 30 mg/kg, IG measured upto 24 hrs by LC-MS/MS analysis; assay type: ADME, organism-based; settings: in vivo, po
Rattus norvegicus [34] = assay: Antinociceptive activity against formalin-induced pain in male Sprague-Dawley rat assessed as reduction in nociceptive response in phase II at IG administration pretreated for 5 mins followed by formalin challenge and measured after 60 mins; assay type: functional; settings: po, 1.083 h, time 65 min
[35] = Cmax in male Sprague-Dawley rat at 30 mg/kg, IG measured upto 24 hrs by LC-MS/MS analysis; assay type: ADME, organism-based; settings: in vivo, po
Rattus norvegicus [36] = assay: Antinociceptive activity against formalin-induced pain in male Sprague-Dawley rat assessed as reduction in nociceptive response at 20 mg/kg, IG pretreated for 5 mins followed by formalin challenge and measured for first 9 mins (phase I); assay type: functional, organism-based; settings: time 14.0 min
Rattus norvegicus [37] = assay: Antiallodynic activity against oxaliplatin-induced neuropathic pain Sprague-Dawley rat model assessed as increased mechanical withdrawal threshold at 40 mg/kg, IG measured after 48 hrs; assay type: functional, organism-based; settings: time 1.0 hrs
[38] = Acute toxicity in mouse assessed as lethal dose at iv administration measured after 7 days; assay type: organism-based; settings: in vivo, time 7 day
Homo sapiens [39] = organism: Homo sapiens; assay: Inhibition of serotonin receptor (unknown origin) relative to control; settings: concentration not given here
[40] = target: Voltage-gated inwardly rectifying potassium channel KCNH2 (Homo sapiens, UniProt Q12809); assay: Inhibition of hERG expressed in HEK293 cells by patch clamp method; assay type: toxicity, cell-based
Rattus norvegicus [41] = assay: Antinociceptive activity against formalin-induced pain in male Sprague-Dawley rat assessed as reduction in nociceptive response at IG administration pretreated for 5 mins followed by formalin challenge and measured for 9 mins (phase I); assay type: functional; settings: po, 14 min
[42] = AUC (0 to infinity) in male Sprague-Dawley rat at 30 mg/kg, IG measured upto 24 hrs by LC-MS/MS analysis; assay type: ADME, organism-based; settings: in vivo, po
[43] = Clearance in male Sprague-Dawley rat at 5 mg/kg, iv measured upto 24 hrs by LC-MS/MS analysis; assay type: ADME, organism-based; settings: in vivo
Mus musculus = assay: Induction of motor coordination impairment in mouse at 10 to 40 mg/kg, IG measured upto 120 mins by rotarod method; assay type: functional, organism-based; settings: dose 10-40 mg/kg

Sequence of Histamine H3 receptor (Homo sapiens) (Q9Y5N1 whole entry): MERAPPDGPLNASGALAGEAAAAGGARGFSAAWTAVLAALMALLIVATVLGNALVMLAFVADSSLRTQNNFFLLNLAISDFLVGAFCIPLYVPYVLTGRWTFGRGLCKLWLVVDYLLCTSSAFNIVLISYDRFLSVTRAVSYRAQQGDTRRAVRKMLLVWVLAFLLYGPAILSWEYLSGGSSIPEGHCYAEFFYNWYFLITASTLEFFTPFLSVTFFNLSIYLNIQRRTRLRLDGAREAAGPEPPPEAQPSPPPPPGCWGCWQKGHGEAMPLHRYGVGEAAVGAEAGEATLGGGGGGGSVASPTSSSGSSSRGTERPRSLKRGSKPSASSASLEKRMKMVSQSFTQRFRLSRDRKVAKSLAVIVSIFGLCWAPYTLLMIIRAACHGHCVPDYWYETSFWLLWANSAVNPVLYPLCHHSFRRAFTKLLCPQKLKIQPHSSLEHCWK
Sequence of Mu-type opioid receptor (Homo sapiens) (P35372 whole entry): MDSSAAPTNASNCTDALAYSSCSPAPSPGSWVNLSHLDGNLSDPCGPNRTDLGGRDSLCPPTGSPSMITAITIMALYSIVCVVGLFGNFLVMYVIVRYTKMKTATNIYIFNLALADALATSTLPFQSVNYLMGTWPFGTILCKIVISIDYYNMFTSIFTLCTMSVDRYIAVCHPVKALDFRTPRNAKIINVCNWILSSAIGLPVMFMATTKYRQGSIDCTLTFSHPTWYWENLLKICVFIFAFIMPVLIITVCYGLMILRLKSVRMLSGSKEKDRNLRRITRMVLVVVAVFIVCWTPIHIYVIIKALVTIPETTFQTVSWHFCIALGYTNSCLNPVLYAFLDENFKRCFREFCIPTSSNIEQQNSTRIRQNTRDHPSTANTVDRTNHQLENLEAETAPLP
Sequence of Transient receptor potential cation channel subfamily V member 1 (Homo sapiens) (Q8NER1 whole entry): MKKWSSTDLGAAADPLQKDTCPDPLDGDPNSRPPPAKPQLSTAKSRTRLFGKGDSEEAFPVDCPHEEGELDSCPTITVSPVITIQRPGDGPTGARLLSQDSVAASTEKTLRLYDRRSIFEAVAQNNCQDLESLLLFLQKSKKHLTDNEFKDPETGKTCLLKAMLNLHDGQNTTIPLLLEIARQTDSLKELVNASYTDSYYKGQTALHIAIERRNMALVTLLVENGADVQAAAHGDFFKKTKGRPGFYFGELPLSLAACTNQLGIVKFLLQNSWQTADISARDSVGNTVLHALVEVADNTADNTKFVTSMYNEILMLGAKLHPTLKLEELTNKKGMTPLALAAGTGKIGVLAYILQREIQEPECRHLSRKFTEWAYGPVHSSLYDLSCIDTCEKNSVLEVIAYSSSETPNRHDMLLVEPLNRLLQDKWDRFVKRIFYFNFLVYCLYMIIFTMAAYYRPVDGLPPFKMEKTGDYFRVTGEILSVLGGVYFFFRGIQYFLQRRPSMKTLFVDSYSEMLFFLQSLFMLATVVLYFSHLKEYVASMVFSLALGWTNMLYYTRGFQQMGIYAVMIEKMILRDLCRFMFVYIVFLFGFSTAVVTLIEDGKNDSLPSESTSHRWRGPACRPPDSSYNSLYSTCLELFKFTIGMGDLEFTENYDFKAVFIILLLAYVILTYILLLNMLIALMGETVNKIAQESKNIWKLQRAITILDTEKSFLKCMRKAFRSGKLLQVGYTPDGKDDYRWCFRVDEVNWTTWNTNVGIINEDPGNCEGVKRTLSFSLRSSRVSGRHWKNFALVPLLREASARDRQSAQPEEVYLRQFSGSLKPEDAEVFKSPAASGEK
Sequence of Voltage-gated inwardly rectifying potassium channel KCNH2 (Q12809 whole entry): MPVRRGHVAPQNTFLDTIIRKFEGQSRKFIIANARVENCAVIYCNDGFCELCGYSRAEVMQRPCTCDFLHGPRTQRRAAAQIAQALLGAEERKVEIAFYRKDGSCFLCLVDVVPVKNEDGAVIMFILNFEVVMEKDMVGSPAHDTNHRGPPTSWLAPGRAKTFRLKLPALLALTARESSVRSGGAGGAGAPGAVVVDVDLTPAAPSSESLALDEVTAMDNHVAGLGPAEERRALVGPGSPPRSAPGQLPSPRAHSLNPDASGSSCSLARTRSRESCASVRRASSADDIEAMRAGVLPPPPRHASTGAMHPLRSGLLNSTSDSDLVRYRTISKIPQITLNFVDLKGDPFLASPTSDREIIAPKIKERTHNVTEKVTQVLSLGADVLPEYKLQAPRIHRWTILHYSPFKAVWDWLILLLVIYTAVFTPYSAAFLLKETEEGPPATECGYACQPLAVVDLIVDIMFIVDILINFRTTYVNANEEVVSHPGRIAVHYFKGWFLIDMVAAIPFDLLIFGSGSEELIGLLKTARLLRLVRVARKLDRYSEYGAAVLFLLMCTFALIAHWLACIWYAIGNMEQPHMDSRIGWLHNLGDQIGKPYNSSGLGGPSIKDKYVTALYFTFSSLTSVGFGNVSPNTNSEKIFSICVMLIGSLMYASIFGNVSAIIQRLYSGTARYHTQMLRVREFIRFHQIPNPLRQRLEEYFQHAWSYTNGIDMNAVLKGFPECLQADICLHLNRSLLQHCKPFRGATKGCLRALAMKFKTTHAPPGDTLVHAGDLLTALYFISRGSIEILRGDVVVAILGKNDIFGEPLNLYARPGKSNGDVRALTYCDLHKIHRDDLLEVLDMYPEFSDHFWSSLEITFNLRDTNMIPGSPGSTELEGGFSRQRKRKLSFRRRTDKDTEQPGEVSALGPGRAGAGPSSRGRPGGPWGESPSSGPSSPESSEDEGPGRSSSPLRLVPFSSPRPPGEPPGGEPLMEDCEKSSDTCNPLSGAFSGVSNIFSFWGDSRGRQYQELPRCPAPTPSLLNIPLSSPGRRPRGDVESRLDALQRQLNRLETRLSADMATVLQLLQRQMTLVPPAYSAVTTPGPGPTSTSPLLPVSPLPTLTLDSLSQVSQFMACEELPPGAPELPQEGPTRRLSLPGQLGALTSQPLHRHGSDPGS
Sequence of Voltage-gated potassium channel, KQT; KCNQ2(Kv7.2)/KCNQ3(Kv7.3) (O43526 whole entry): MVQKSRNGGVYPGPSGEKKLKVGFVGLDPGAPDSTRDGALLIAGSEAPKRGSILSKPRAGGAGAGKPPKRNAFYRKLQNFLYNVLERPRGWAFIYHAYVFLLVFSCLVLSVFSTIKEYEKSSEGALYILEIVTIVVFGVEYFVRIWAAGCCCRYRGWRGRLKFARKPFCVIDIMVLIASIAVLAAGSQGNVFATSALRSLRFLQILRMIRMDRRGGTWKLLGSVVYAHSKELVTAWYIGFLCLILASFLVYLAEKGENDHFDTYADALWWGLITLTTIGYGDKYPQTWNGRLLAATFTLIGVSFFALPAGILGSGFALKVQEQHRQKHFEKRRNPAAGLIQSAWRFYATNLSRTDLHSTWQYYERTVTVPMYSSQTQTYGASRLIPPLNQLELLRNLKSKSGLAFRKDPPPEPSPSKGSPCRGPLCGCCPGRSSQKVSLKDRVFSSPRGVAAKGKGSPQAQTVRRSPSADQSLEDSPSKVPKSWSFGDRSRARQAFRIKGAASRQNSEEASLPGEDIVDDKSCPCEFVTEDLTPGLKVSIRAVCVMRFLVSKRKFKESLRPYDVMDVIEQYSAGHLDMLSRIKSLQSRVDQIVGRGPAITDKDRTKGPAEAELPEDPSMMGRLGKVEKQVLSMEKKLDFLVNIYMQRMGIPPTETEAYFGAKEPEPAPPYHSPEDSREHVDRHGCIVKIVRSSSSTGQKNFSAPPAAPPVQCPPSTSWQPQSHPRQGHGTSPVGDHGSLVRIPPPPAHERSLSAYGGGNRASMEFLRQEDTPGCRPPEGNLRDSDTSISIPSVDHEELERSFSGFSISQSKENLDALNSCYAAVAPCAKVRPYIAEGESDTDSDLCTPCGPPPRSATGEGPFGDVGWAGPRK
Sequence of Voltage-gated potassium channel, KQT; KCNQ2(Kv7.2)/KCNQ3(Kv7.3) (O43525 whole entry): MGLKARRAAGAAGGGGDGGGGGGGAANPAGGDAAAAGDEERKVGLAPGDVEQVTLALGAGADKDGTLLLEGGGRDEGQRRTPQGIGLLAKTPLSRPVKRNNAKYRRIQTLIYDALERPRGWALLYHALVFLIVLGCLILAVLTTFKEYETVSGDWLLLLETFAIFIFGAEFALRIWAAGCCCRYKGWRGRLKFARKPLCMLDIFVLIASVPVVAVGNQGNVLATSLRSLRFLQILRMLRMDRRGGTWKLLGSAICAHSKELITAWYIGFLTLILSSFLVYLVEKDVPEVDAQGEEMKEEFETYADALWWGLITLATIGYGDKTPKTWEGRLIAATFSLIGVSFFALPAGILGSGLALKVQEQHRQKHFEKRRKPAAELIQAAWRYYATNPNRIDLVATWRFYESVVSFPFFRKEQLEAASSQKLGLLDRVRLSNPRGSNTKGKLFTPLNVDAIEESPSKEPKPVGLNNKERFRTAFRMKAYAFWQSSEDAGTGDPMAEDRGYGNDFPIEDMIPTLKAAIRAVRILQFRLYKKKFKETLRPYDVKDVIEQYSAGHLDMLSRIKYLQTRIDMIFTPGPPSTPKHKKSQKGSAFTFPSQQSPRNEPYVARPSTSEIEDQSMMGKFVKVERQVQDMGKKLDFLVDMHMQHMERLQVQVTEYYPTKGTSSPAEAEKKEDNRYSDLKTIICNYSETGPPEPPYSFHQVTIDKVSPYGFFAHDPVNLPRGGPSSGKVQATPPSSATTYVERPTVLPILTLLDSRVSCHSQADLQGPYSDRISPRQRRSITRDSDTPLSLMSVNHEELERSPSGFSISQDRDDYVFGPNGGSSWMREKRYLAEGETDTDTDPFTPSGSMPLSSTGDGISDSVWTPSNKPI

In the case of `CC(=O)Nc1nc(OCc2ccc(F)cc2)ccc1N`, the Activity (Rattus norvegicus [1]; time 15.0 day) is reported as “Dose-dependent-effect”, the ED50 (Rattus norvegicus [1]; po, 360 h, time 15 day) is reported as 12 mg/kg and the EC50 [2] is reported as 1.03 µM. The inhibition [3] was 59.5%, the AUC(0-t) at 24 h [4] was 4110 ng·h/mL and the Activity (Rattus norvegicus [5]) was “Active”. For the same molecule, the AUC(0-inf) [6] was 1520 ng·h/mL, the inhibition [7] was 69.7% and the LD50 at 168 h [8] was 421 mg/kg. For the same molecule, the ED50 (Rattus norvegicus [9]; 360 h, time 15 day) was 9.63 mg/kg, the Activity (Rattus norvegicus [9]; time 15.0 day) was “Dose-dependent-effect” and the Activity [10] was less than 70%. The half-life [11] was 3.5 h, the Activity [12] was “Non-toxic” and the Activity (Rattus norvegicus [13]) was “Active”. The Activity [14] was 184%, the AUC(0-t) at 24 h [15] was 1100 ng·h/mL and the ED50 (Rattus norvegicus [16]) was 12.2 mg/kg. The Activity (Rattus norvegicus [17]) was “Active; Higher Value Observed Than Pregabalin”, the Activity [18] was “Non-toxic” and the inhibition (Homo sapiens [19]) was less than 50%. For the same molecule, the Cmax [20] was 2850 ng/mL, the inhibition [21] was less than 50% and the Activity [22] was “Non-toxic”. For the same molecule, the ED50 (Rattus norvegicus [23]; po, 360 h, time 15 day) was 14.9 mg/kg, the Activity (Rattus norvegicus [23]; time 15.0 day) was “Dose-dependent-effect” and the bioavailability [24] was 46.7%. For the same molecule, the Activity (Rattus norvegicus [25]) was “Active; Better Activity Than Pregabalin Observed”, the Tmax [26] was 0.17 h and the inhibition [27] was less than 50%. For the same molecule, the LD50 at 168 h [28] was greater than 2000 mg/kg, the Activity (Rattus norvegicus [29]) was “Active; Superior Activity Observed Than Pregabalin” and the half-life [30] was 12.8 h. For the same molecule, the inhibition [31] was less than 50%, the Activity (Rattus norvegicus [32]) was “Active” and the CL/F [33] was 120 mL/min/kg. The ED50 (Rattus norvegicus [34]) was 14.7 mg/kg, the Cmax [35] was 3340 ng/mL and the Activity (Rattus norvegicus [36]) was “Active”. For the same molecule, the Activity (Rattus norvegicus [37]) was “Active; Inhibition Of Pain Was Higher Than Pregabalin”, the LD50 at 168 h [38] was 267 mg/kg and the inhibition (Homo sapiens [39]) was less than 50%. It also gave an IC50 [40] of 448 µM, an ED50 (Rattus norvegicus [41]) of 16.2 mg/kg and an AUC(0-inf) [42] of 4270 ng·h/mL. For the same molecule, the clearance [43] was 56.7 mL/min/kg and the Activity (Mus musculus) was “Active”.
